Where two headings read alike, the source gives them in different places.
Assays:
[1] = test system: RNA polymerase III (RNA pol III); assay: Compound selectivity by real-time fluorescent quantitative PCR in A549 cells: gene regulated by RNA pol III; assay type: cell-based; details: for Expression of genes regulated by RNA pol III (5S): 72 h, qPCR ΔΔCt, significance by T-Test
Method: (§1) Tumor cells A549 were plated at an appropriate density and incubated overnight. The cells were treated with compounds or DMSO for 72 h, and total cellular RNA was extracted according to the instructions of TaqMan™ Fast Advanced Cells-to-CT™ Kit (Invitrogen #A35377). Briefly, the cells were washed with PBS twice. Supernatants were discarded, and 50 μL/well of lysis buffer was added. The cells were incubated at room temperature for 5 min. Then, 5 μL of stop buffer was added. The mixture was left to stand for 2 min and then placed on ice in preparation for reverse transcription and extraction of cDNA. QPCR was carried out according to the requirements of TaqMan® Fast Advanced Master Mix (Invitrogen). Eukaryotes have three different nuclear RNA polymerases, namely RNA polymerase I (RNA pol I), RNA polymerase II (RNA pol II) and RNA polymerase III (RNA pol III). To eliminate the effect of the compounds on the inhibition of the activity of other RNA polymerases, we selected 18S rRNA, 28S rRNA; β-actin; 5S rRNA; ND1, CYTB and COX1 transcriptionally regulated by RNA Pol I, II, III and POLRMT. Whether the mRNA levels of these genes were inhibited was detected. The qPCR results were analyzed by the ΔΔCt method and statistically analyzed by Graphpad8.0. The significant differences were statistically analyzed by T-Test.

A2780 cells = assay: Determination of cell activity (CellTiter-Glo Luminescent Cell Viability Assay); assay type: cell-based; details: A2780 cells, 7 days treatment, CellTiter-Glo, read-out: IC50
Method: To examine the effect of compounds on cell viability, ATP was directly quantified using the CellTiter-Glo Luminescent Cell Viability Assay (Promega) to determine the number of viable cells.
Cell density was selected based on optimal signal intensity and growth curve for the inoculation of A2780 cells. The cells were incubated at 37° C. and 5% C02 overnight. Cells were treated with blank group, DMSO group and compound group, respectively, at 37° C. and 5% C02 for 7 days. The prepared solutions were added to cell wells according to the instructions of CellTiter-Glo (Promega), and shaken at a speed of 400 g for 2 min. Then, the solutions were centrifuged at 1000 g for 2 min and incubated at rest for 30 min to ensure a complete reaction. […] readings were taken using a multi-label microplate reader (Perkin Elmer) to calculate IC50 values.

POLRMT = target: T1, POLRMT (Homo sapiens, UniProt O00411); assay: Compound selectivity by real-time fluorescent quantitative PCR in A549 cells: genes regulated by POLRMT; assay type: cell-based; details: 72 h, qPCR ΔΔCt, significance by T-Test
T1 construct: endogenous in cells; host or cells: A549
Method: as §1

[2] = Pharmacokinetic assay in CD1 mice; assay type: in vivo; details: for F: bioavailability; for half-life: Table I-3, read-out: T1/2 (h) for oral administration (converted)
Method: pharmacokinetic assay of compounds was carried out in CD1 mice aged 6-8 weeks with IMT1B as a positive control. The compounds and the positive control were dissolved in 30% aqueous hydroxypropyl-β-cyclodextrin solution containing 25% PEG400 and administered via intravenous injection (1 mg/kg) or intragastric administration (5 mg/kg). Blood samples were collected at 0.033, 0.083, 0.25, 0.5, 1, 2, 4, 8, 24 h and 0.083, 0.25, 0.5, 1, 2, 4, 8, 24 h respectively after administration.
The concentration of the compounds in plasma samples was analyzed using the LC-MS/MS method. Pharmacokinetic calculations were performed using WinNonlin (Phoenix™, version 8.3) or other similar software. The following pharmacokinetic parameters were calculated from the plasma concentration vs. time data: for intravenous administration: T1/2, C0, AUClast, AUCinf, MRTinf, Cl, Vss, regression coefficient, etc.; for oral administration: T1/2, Cmax, Tmax, AUClast, AUCinf, bioavailability, etc. The above parameter data were statistically calculated and described using descriptive statistics such as mean value and standard deviation.

MOLM-13-luc tumor cells = assay: In vivo pharmacodynamic test, MOLM-13-luc orthotopic mouse model of leukemia
Method: The efficacy of compounds was evaluated using an orthotopic mouse model of leukemia. […] After the cell confluence reached 80%-90%, the cells were subcultured into separate flasks. The tumor cells in the logarithmic growth phase were used for the inoculation of tumors in vivo. Approximately 7 days after the inoculation of the tumor cells, according to the body weights of the animals and optical signal intensity at tumor sites, the animals were randomly divided into 4 groups, namely solvent control group [5% TPGS in PH 8 buffer (50 mM potassium dihydrogen phosphate buffer), BID, intragastric administration], IMT1B (50 mpk, BID, intragastric administration), A1-1-5 (25 mpk, BID, intragastric administration) and A1-1-5 (50 mpk, BID, intragastric administration), with 10 animals in each group. Tumor growth was monitored, and behavioral changes in the animals were also monitored.
During the experiment, all the animals were weighed twice a week. The percentage of body weight change (BW change, %) was calculated using the following formula: BW change=(BW Day X/BW Day 0)×100, where BW Day X is the body weight of the animals on the day of administration, and BW Day 0 is the body weight of the animals on the day of grouping.
Mice were imaged twice a week according to their status using the small animal living imaging system IVIS Lumina III (Perkin Elmer). The signal intensity of the bioluminescence imaging (BLI, unit: photons/s) at tumor cell inoculation sites in mice was monitored, which served as the main indicator for evaluating tumor growth and the efficacy of drugs. The specific operation procedures were as follows.
After the mice were intraperitoneally injected with D-luciferin (manufactured by Perkin Elmer, 15 mg/mL solution, injected at […] according to the body weight of experimental animals), the animals were subjected to inhalation anesthesia using 1%-2% isoflurane. Approximately 10 minutes after the injection of D-luciferin, the animals were imaged using IVIS Lumina III. The imaging results were analyzed and processed using the Living Image software (Perkin Elmer), and the optical signal intensity in the ROI (regions of interest) of the whole body of each animal was calculated. […] The administration and imaging were continued for the animals in other groups. At the endpoint of the experiment, the median survival times of all groups throughout the experiment were calculated, and the curves were plotted.

[3] = test system: RNA polymerase I (RNA pol I); assay: Compound selectivity by real-time fluorescent quantitative PCR in A549 cells: genes regulated by RNA pol I; assay type: cell-based; details: for Expression of genes regulated by RNA pol I (18S, 28S): 72 h, qPCR ΔΔCt, significance by T-Test
Method: as §1

[4] = test system: RNA polymerase II (RNA pol II); assay: Compound selectivity by real-time fluorescent quantitative PCR in A549 cells: gene regulated by RNA pol II; assay type: cell-based; details: for Expression of genes regulated by RNA pol II (β-actin): 72 h, qPCR ΔΔCt, significance by T-Test
Method: as §1

[5] = main pharmacokinetic parameters, Table I-4
[6] = mouse, plasma, po, 5 mg/kg, main pharmacokinetic parameters, Table I-4
[7] = mouse, plasma, po, intragastric administration 5 mg/kg
[8] = at the same dose (50 mpk, BID, intragastric)

T1 sequence (O00411 42-1230): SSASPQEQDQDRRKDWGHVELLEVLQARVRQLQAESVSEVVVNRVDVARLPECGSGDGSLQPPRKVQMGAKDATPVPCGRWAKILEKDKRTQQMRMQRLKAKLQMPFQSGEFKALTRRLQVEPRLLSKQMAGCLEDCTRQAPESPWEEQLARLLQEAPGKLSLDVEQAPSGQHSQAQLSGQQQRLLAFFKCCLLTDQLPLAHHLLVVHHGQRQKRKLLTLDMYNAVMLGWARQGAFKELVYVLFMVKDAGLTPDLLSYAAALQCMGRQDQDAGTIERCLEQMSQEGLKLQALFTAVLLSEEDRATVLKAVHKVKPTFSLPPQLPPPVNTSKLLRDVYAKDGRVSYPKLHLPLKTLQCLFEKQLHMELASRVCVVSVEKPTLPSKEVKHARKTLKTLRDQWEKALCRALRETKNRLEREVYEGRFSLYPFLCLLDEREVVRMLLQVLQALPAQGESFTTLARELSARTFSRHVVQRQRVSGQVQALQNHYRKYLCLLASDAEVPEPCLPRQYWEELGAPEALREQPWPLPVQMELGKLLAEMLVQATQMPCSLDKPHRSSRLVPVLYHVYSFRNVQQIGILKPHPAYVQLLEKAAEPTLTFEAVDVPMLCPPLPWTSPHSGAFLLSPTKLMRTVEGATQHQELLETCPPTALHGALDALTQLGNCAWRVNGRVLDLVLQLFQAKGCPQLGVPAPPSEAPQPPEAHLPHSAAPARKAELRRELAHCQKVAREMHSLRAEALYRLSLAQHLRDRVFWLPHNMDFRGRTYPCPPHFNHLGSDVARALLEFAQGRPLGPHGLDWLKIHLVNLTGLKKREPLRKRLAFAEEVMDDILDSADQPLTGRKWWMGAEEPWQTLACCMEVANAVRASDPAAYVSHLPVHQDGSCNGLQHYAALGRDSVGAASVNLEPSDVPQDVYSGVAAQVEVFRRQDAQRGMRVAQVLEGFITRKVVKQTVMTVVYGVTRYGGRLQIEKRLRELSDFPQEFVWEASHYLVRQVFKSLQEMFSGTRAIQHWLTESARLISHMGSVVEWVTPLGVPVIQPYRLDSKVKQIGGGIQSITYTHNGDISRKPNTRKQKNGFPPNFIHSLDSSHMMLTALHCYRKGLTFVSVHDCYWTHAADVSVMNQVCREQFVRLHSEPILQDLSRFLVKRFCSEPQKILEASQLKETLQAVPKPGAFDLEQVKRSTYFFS

IC50 (A2780 cells; Homo sapiens, 168 h) [nM] | half-life [2, 7] [h] | SMILES | Expression of genes regulated by RNA pol III (5S) [1] | Expression of genes regulated by POLRMT (ND1, CYTB, COX1) (POLRMT) | F ([2]; Table I-4) [%] | T1/2 [2, 5] [h] | Expression of genes regulated by RNA pol I (18S, 28S) [3] | Expression of genes regulated by RNA pol II (β-actin) [4] | further results
< 20 | 4.29 | CC(Oc1ccc2c(-c3ccc(F)cc3Cl)cc(=O)oc2c1)C(=O)C1CCC(C(=O)[O-])CC1.[Na+] (stereo not drawn) [α-10] |  |  |  |  |  |  | 
20 to 100 | 5.27 | CC(Oc1ccc2c(-c3ccc(F)cc3Cl)cc(=O)oc2c1)C(=O)C1CCNCC1 (stereo not drawn) [α-11] |  |  |  |  |  |  | 

The next lines start with the compound.

SMILES | IC50 (A2780 cells; Homo sapiens, 168 h) [nM] | half-life [2, 7] [h] | Expression of genes regulated by RNA pol III (5S) [1] | Expression of genes regulated by POLRMT (ND1, CYTB, COX1) (POLRMT) | F ([2]; Table I-4) [%] | T1/2 [2, 5] [h] | Expression of genes regulated by RNA pol I (18S, 28S) [3] | Expression of genes regulated by RNA pol II (β-actin) [4] | further results
C[C@@H](Oc1ccc2c(-c3ccc(F)cc3Cl)cc(=O)oc2c1)C(=O)c1cccc(C(=O)O)c1 [Compound A1-1-5] | 20 to 100 | 3.16 | (-) ((-) represents P≥ 0.05) | (++) ((++) represents P < 0.01) | 85.846 | 3.158 | (-) ((-) represents P≥ 0.05) | (-) ((-) represents P≥ 0.05) | maximum plasma concentration Cmax compared with IMT1B ([2]; comparison in words): significantly superior to IMT1B; plasma exposure AUC compared with IMT1B ([2]; comparison in words): significantly superior to IMT1B; AUC(0-inf) [2, 6]: 179 µg·h/mL; AUC(0-t) [2, 6]: 178 µg·h/mL; Cmax ([2]; mouse, plasma, po, 5 mg/kg, main pharmacokinetic parameters, Table I-4, read-out: Cmax): 44100 ng/mL; efficacy at a relatively low dose (MOLM-13-luc tumor cells; MOLM13 orthotopic hematological tumor model, BID intragastric): effective at a relatively low dose; tumor inhibitory effect (BLI imaging) (MOLM-13-luc tumor cells; MOLM13 orthotopic hematological tumor model, BID intragastric, 25 and 50 mpk): good tumor inhibitory effect; median survival time compared with IMT1B (MOLM-13-luc tumor cells; [8]): significantly superior to IMT1B; tumor inhibition compared with IMT1B (MOLM-13-luc tumor cells; [8]): significantly superior to IMT1B
C[C@@H](Oc1ccc2c(-c3ccc(F)cc3Cl)cc(=O)oc2c1)C(=O)N1CCC[C@H](C(=O)O)C1 [IMT1B, reference compound] |  |  | (-) ((-) represents P≥ 0.05) | (++) ((++) represents P < 0.01) | 80.236 | 2.445 | (-) ((-) represents P≥ 0.05) | (-) ((-) represents P≥ 0.05) | inhibition of the activity of RNA polymerase III ([1]; qPCR, in words): do not inhibit; IC50 (A2780 cells): 20 to 100 nM; T1/2 (h) for oral administration ([2]; intragastric administration 5 mg/kg, Table I-3): 2.445 h; AUCInf [2, 5]: 24.420076 µg·h/mL; AUClast [2, 5]: 24.389836 µg·h/mL; Cmax [2, 5]: 7300 ng/mL; inhibition of the activity of RNA polymerase I ([3]; qPCR, in words): do not inhibit; inhibition of the activity of RNA polymerase II ([4]; qPCR, in words): do not inhibit
CC(Oc1ccc2c(-c3ccc(F)cc3Cl)cc(=O)oc2c1)C(=O)c1ccncc1 (stereo not drawn) [α-13] | 20 to 100 | 6.91 |  |  |  |  |  |  | 

Source: patent publication US20260200885A1, “BENZOPYRONE COMPOUNDS AS WELL AS PREPARATION METHOD THEREFOR AND USE THEREOF” (CHENGDU DI’AO JIUHONG PHARMACEUTICAL FACTORY, priority 2022, published 2026)
